Measurements published in ChEMBL document CHEMBL1148906, “Two pyranocoumarins from the seeds of Calophyllum polyanthum” (2004).

System: Human alphaherpesvirus 2
Assay: Antiherpetic activity against HSV2 in african green monkey Vero cells assessed as inhibition of virus-induced cytopathic effect
Assay type: functional
Conditions: Human alphaherpesvirus 2, Vero

| Compound | GI50 [µg/mL] |
| --- | --- |
| CC(C)=CCc1c(O)c2c(c3c1OC(=O)C[C@H]3c1ccccc1)O[C@@H](C)[C@@H](C)C2=O [CALOPOLYANOLIDE D] | > 250 |
| CC(C)=CCc1c(O)c2c(c3c1OC(=O)C[C@H]3c1ccccc1)O[C@@H](C)[C@H](C)C2=O [CALOPOLYANOLIDES C] | > 250 |
